According to US7141592B2, “Substituted oxadiazolidinediones” (Wyeth, priority 2003, dated 2006):

Molecular target: T1, recombinant human plasminogen activator inhibitor-1 (PAI-1) (Homo sapiens, UniProt P05121)
T1 construct: purchased Molecular Innovations, Royal Oak, Mich
Test: Primary screen for the PAI-1 inhibition (chromogenic tPA activity, Spectrozyme-tPA)
Type: biochemical
Conditions: compound at 100 μM
Protocol: Test compounds are dissolved in DMSO at a final concentration of 10 mM, then diluted 100× in physiologic buffer. The inhibitory assay is initiated by the addition of the substituted oxadiazolidinedione (1–100 μM final concentration, maximun DMSO concentration of 0.2%) in a pH 6.6 buffer containing 140 nM recombinant human plasminogen activator inhibitor-1 (PAI-1; Molecular Innovations, Royal Oak, Mich.). Following a 1 hour incubation at room temperature, 70 nM of recombinant human tissue plasminogen activator (tPA) is added, and the combination of the substituted oxadiazolidinedione, PAI-1 and tPA is incubated for an additional 30 minutes. Following the second incubation, Spectrozyme-tPA (American Diagnostica, Greenwich, Conn.), a chromogenic substrate for tPA, is added and absorbance read at 405 nm at 0 and 60 minutes. Relative PAI-1 inhibition is equal to the residual tPA activity in the presence of the test compound and PAI-1. Control treatments include the complete inhibition of tPA by PAI-1 at the molar ratio employed (2:1), and the absence of any effect of the substituted oxadiazolidinedione on tPA alone.

T1 sequence (P05121 24-402): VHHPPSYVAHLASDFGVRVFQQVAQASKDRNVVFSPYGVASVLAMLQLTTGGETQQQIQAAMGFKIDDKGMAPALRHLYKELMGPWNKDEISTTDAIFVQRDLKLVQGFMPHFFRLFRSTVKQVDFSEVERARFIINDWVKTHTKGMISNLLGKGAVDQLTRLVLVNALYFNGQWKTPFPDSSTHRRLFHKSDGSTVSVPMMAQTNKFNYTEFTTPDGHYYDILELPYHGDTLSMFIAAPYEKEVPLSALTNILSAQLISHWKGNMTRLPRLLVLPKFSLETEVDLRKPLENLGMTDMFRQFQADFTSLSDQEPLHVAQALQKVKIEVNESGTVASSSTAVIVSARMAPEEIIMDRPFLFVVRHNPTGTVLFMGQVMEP

| inhibition at 100 µM [%] | SMILES |
| --- | --- |
| 56 | CCCCC#Cc1ccc(Cn2oc(=O)[nH]c2=O)cc1 [Compound 57, 2-(4-hex-1-ynylbenzyl)-1,2,4-oxadiazolidine-3,5-dione] |
| 38 | O=c1[nH]c(=O)n(Cc2cccc(C#Cc3ccccc3)c2)o1 [Compound 60, 2-[3-(phenylethynyl)benzyl]-1,2,4-oxadiazolidine-3,5-dione] |
| 87 | O=c1[nH]c(=O)n(Cc2ccc(C#CCOc3cc(C(F)(F)F)cc(C(F)(F)F)c3)cc2)o1 [Compound 61, 2-(4-{3-[3,5-bis(trifluoromethyl)phenoxy]prop-1-ynyl}benzyl)-1,2,4-oxadiazolidine-3,5-dione] |
| 82 | O=c1[nH]c(=O)n(Cc2ccc(C#CCOc3cc(Cl)cc(Cl)c3)cc2)o1 [Compound 62, 2-{4-[3-(3,5-dichlorophenoxy)prop-1-ynyl]benzyl}-1,2,4-oxadiazolidine-3,5-dione] |
| 85 | O=c1[nH]c(=O)n(Cc2ccc(C#CCOc3cccc(Cl)c3)cc2)o1 [Compound 63, 2-{4-[3-(3-chlorophenoxy)prop-1-ynyl]benzyl}-1,2,4-oxadiazolidine-3,5-dione] |
| 77 | CC(C)(C)c1ccc(OCC#Cc2cccc(Cn3oc(=O)[nH]c3=O)c2)cc1 [Compound 65, 2-{3-[3-(4-tert-butylphenoxy)prop-1-ynyl]benzyl}-1,2,4-oxadiazolidine-3,5-dione] |
| 85 | O=c1[nH]c(=O)n(Cc2cccc(C#CCOc3ccc(Br)cc3)c2)o1 [Compound 66, 2-{3-[3-(4-bromophenoxy)prop-1-ynyl]benzyl}-1,2,4-oxadiazolidine-3,5-dione] |
| 84 | O=c1[nH]c(=O)n(Cc2cccc(C#CCOc3cc(C(F)(F)F)cc(C(F)(F)F)c3)c2)o1 [Compound 67, 2-(3-{3-[3,5-bis(trifluoromethyl)phenoxy]prop-1-ynyl}benzyl)-1,2,4-oxadiazolidine-3,5-dione] |
| 93 | O=c1[nH]c(=O)n(Cc2cccc(C#CCOc3cc(Cl)cc(Cl)c3)c2)o1 [Compound 68, 2-{3-[3-(3,5-dichlorophenoxy)prop-1-ynyl]benzyl}-1,2,4-oxadiazolidine-3,5-dione] |
| 85 | O=c1[nH]c(=O)n(Cc2cccc(C#CCOc3cccc(Cl)c3)c2)o1 [Compound 69, 2-{3-[3-(3-chlorophenoxy)prop-1-ynyl]benzyl}-1,2,4-oxadiazolidine-3,5-dione] |
| 85 | O=c1[nH]c(=O)n(Cc2cc(OCc3cccc(Cl)c3)cc(OCc3cccc(Cl)c3)c2)o1 [Compound 71, 2-{3,5-bis[(3-chlorobenzyl)oxy]benzyl}-1,2,4-oxadiazolidine-3,5-dione] |
| 87 | O=c1[nH]c(=O)n(Cc2cc(OCc3ccc(C(F)(F)F)cc3)cc(OCc3ccc(C(F)(F)F)cc3)c2)o1 [Compound 72, 2-(3,5-bis{[4-(trifluoromethyl)benzyl]oxy}benzyl)-1,2,4-oxadiazolidine-3,5-dione] |
| 81 | Cc1cccc(COc2cc(Cn3oc(=O)[nH]c3=O)cc(OCc3cccc(C)c3)c2)c1 [Compound 73, 2-{3,5-bis[(3-methylbenzyl)oxy]benzyl}-1,2,4-oxadiazolidine-3,5-dione] |
| 92 | O=c1[nH]c(=O)n(Cc2cc(OCc3cccc(Br)c3)cc(OCc3cccc(Br)c3)c2)o1 [Compound 74, 2-{3,5-bis[(3-bromobenzyl)oxy]benzyl}-1,2,4-oxadiazolidine-3,5-dione] |
| 91 | O=c1[nH]c(=O)n(Cc2cc(OCc3ccccc3Br)cc(OCc3ccccc3Br)c2)o1 [Compound 75, 2-{3,5-bis[(2-bromobenzyl)oxy]benzyl}-1,2,4-oxadiazolidine-3,5-dione] |
| 95 | COc1cc(Cn2oc(=O)[nH]c2=O)cc(OCc2ccc(C(F)(F)F)cc2)c1OCc1ccc(C(F)(F)F)cc1 [Compound 76, 2-(3-methoxy-4,5-bis{[4-(trifluoromethyl)benzyl]oxy}benzyl)-1,2,4-oxadiazolidine-3,5-dione] |
| 88 | COc1cc(Cn2oc(=O)[nH]c2=O)cc(OCc2cccc(C)c2)c1OCc1cccc(C)c1 [Compound 77, 2-{3-methoxy-4,5-bis[(3-methylbenzyl)oxy]benzyl}-1,2,4-oxadiazolidine-3,5-dione] |
| 91 | COc1cc(Cn2oc(=O)[nH]c2=O)cc(OCc2cccc(Cl)c2)c1OCc1cccc(Cl)c1 [Compound 78, 2-{3,4-bis[(3-chlorobenzyl)oxy]-5-methoxybenzyl}-1,2,4-oxadiazolidine-3,5-dione] |
| 87 | COc1cc(Cn2oc(=O)[nH]c2=O)cc(OCc2cccc(Br)c2)c1OCc1cccc(Br)c1 [Compound 79, 2-{3,4-bis[(3-bromobenzyl)oxy]-5-methoxybenzyl}-1,2,4-oxadiazolidine-3,5-dione] |
| 89 | COc1cc(Cn2oc(=O)[nH]c2=O)cc(OCc2ccccc2Br)c1OCc1ccccc1Br [Compound 80, 2-{3,4-bis[(2-bromobenzyl)oxy]-5-methoxybenzyl}-1,2,4-oxadiazolidine-3,5-dione] |
| 92 | O=c1[nH]c(=O)n(Cc2cccc(OCc3ccc(C(F)(F)F)cc3)c2OCc2ccc(C(F)(F)F)cc2)o1 [Compound 81, 2-(2,3-bis{[4-(trifluoromethyl)benzyl]oxy}benzyl)-1,2,4-oxadiazolidine-3,5-dione] |

Further lines, the compound ahead of its results:

| SMILES | inhibition at 100 µM [%] |
| --- | --- |
| C=CCn1cc(Cn2oc(=O)[nH]c2=O)c2cc(OCc3ccc(Cl)c(Cl)c3)ccc21 [Compound 34, 2-({1-allyl-5-[(3,4-dichlorobenzyl)oxy]-1H-indol-3-yl}methyl)-1,2,4-oxadiazolidine-3,5-dione] | 87 |
| O=c1[nH]c(=O)n(Cc2cccc(-c3cccc(OCc4ccccc4Cl)c3)c2)o1 [Compound 36, 2-({3′-[(2-chlorobenzyl)oxy]-1,1′-biphenyl-3-yl}methyl)-1,2,4-oxadiazolidine-3,5-dione] | 100 |
| O=c1[nH]c(=O)n(Cc2cccc(-c3cccc(OCc4cc(C(F)(F)F)cc(C(F)(F)F)c4)c3)c2)o1 [Compound 38, 2-[(3′-{[3,5-bis(trifluoromethyl)benzyl]oxy}-1,1′-biphenyl-3-yl)methyl]-1,2,4-oxadiazolidine-3,5-dione] | 69 |
| O=c1[nH]c(=O)n(Cc2cccc(-c3cccc(OCc4cccc(Cl)c4)c3)c2)o1 [Compound 39, 2-({3′-[(3-chlorobenzyl)oxy]-1,1′-biphenyl-3-yl}methyl)-1,2,4-oxadiazolidine-3,5-dione] | 99 |
| O=c1[nH]c(=O)n(Cc2cccc(-c3cccc(OCc4ccccc4)c3)c2)o1 [Compound 40, 2-{[3′-(benzyloxy)-1,1′-biphenyl-3-yl]methyl}-1,2,4-oxadiazolidine-3,5-dione] | 96 |
| O=c1[nH]c(=O)n(Cc2cccc(-c3cccc(OCc4ccc(Cl)cc4)c3)c2)o1 [Compound 42, 2-({3′-[(4-chlorobenzyl)oxy]-1,1′-biphenyl-3-yl}methyl)-1,2,4-oxadiazolidine-3,5-dione] | 100 |
| O=c1[nH]c(=O)n(Cc2cccc(-c3cccc(OCc4ccc(Cl)c(Cl)c4)c3)c2)o1 [Compound 43, 2-({3′-[(3,4-dichlorobenzyl)oxy]-1,1′-biphenyl-3-yl}methyl)-1,2,4-oxadiazolidine-3,5-dione] | 100 |
| O=c1[nH]c(=O)n(Cc2cccc(-c3cccc(OCc4ccc5ccccc5c4)c3)c2)o1 [Compound 44, 2-{[3′-(2-naphthylmethoxy)-1,1′-biphenyl-3-yl]methyl}-1,2,4-oxadiazolidine-3,5-dione] | 28 |
| Cc1ccc(COc2cccc(-c3cccc(Cn4oc(=O)[nH]c4=O)c3)c2)cc1 [Compound 45, 2-({3′-[(4-methylbenzyl)oxy]-1,1′-biphenyl-3-yl}methyl)-1,2,4-oxadiazolidine-3,5-dione] | 94 |
| Cc1cccc(COc2cccc(-c3cccc(Cn4oc(=O)[nH]c4=O)c3)c2)c1 [Compound 46, 2-({3′-[(3-methylbenzyl)oxy]-1,1′-biphenyl-3-yl}methyl)-1,2,4-oxadiazolidine-3,5-dione] | 80 |
| O=c1[nH]c(=O)n(Cc2cccc(-c3cccc(OCc4c(Cl)cccc4Cl)c3)c2)o1 [Compound 47, 2-({3′-[(2,6-dichlorobenzyl)oxy]-1,1′-biphenyl-3-yl}methyl)-1,2,4-oxadiazolidine-3,5-dione] | 88 |
| CC(C)(C)c1ccc(COc2cccc(-c3ccc(Cn4oc(=O)[nH]c4=O)cc3)c2)cc1 [Compound 53, 2-({3′-[(4-tert-butylbenzyl)oxy]-1,1′-biphenyl-4-yl}methyl)-1,2,4-oxadiazolidine-3,5-dione] | 60 |
| O=c1[nH]c(=O)n(Cc2ccc(-c3cccc(OCc4ccc(Br)cc4)c3)cc2)o1 [Compound 54, 2-({3′-[(4-bromobenzyl)oxy]-1,1′-biphenyl-4-yl}methyl)-1,2,4-oxadiazolidine-3,5-dione] | 10 |
| O=c1[nH]c(=O)n(Cc2ccc(-c3ccc(OCc4cccc(Br)c4)cc3)cc2)o1 [Compound 55, 2-({4′-[(3-bromobenzyl)oxy]-1,1′-biphenyl-4-yl}methyl)-1,2,4-oxadiazolidine-3,5-dione] | 41 |
| O=c1[nH]c(=O)n(Cc2ccc(C#Cc3ccccc3)cc2)o1 [Compound 56, 2-[4-(phenylethynyl)benzyl]-1,2,4-oxadiazolidine-3,5-dione] | 65 |
